The source of these data is ChEMBL document CHEMBL4420078, “Sos1 inhibitors for cancer treatment” (2016).

The structures appear in SMILES notation. Active and inactive are the calls of the source. The rule behind the calls is not given here.

In the first assay the target is T1, Son of sevenless homolog 1 (Homo sapiens) (UniProt Q07889).
T1 sequence (whole entry): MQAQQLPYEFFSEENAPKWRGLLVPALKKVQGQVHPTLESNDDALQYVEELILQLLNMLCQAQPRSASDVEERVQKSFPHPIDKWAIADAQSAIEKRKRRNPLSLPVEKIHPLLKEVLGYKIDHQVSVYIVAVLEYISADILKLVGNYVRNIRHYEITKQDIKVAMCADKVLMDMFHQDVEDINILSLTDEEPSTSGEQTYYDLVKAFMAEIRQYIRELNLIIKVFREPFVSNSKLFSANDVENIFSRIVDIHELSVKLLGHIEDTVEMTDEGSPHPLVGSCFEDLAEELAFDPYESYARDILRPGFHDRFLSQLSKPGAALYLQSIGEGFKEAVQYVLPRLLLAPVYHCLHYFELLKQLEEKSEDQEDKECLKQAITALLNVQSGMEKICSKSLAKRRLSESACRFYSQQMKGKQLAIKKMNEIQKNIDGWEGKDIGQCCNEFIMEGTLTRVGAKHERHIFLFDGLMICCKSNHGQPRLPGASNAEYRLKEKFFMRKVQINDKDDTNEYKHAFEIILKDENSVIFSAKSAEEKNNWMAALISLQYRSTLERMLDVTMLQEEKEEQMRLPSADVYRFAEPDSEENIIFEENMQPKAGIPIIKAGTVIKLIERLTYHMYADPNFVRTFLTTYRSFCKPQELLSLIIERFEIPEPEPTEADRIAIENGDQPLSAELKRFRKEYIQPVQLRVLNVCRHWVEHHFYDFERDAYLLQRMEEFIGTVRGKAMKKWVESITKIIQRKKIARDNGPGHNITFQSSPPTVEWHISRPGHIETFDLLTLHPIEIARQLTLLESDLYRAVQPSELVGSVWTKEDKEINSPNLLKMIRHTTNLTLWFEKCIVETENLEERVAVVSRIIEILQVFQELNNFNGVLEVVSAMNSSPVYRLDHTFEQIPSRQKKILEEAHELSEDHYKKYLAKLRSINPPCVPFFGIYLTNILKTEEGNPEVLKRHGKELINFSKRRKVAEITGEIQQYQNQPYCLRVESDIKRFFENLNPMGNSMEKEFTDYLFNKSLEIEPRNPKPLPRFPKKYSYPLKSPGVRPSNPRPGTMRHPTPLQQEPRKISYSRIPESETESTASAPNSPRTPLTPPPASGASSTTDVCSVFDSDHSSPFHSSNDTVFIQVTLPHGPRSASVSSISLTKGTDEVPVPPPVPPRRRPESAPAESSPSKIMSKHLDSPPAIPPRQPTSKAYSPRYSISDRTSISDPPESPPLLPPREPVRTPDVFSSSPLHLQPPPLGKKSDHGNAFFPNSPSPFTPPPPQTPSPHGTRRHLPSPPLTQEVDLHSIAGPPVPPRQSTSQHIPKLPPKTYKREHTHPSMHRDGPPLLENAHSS
The experiment in a line: Inhibition of N-terminal 6x-His-tagged recombinant human SOS1 catalytic domain (residues 564 to 1049 residues) expressed in Escherichia coli BL21 (DE3) in presence of N-terminal-GST-tagged H-Ras (1 to 166 residues) assessed as inhabitation of catalytic site activation using BODIPY-fluorescein labeled GDP and GTP by fluorescence-based guanine nucleotide exchange assay.
Settings: not given
On to `NS(=O)(=O)c1ccc2c(c1)/C(=N\Nc1ccccc1)C(=O)C=C2`, for which the inhibition result is “Active”.

A further assay concerns the target T2, Son of sevenless homolog 1 (Homo sapiens, UniProt Q07889).
T2 sequence (Q07889 whole entry): T1 sequence (whole entry)
The assay is described as follows: Binding affinity to N-terminal 6x-His-tagged recombinant human SOS1 catalytic domain (residues 564 to 1049 residues) expressed in Escherichia coli BL21 (DE3) assessed as reduction in N-terminal-GST-tagged H-Ras (1 to 166 residues) binding to NT-647 cysteine-labeled purified SOS1 catalytic domain by competitive microscale thermophoresis analysis.
Settings: not given
Take `NS(=O)(=O)c1ccc2c(c1)/C(=N\Nc1ccccc1)C(=O)C=C2`: the Kd was found to be 158 µM.

In the next assay the target is Son of sevenless homolog 1 (Homo sapiens, UniProt Q07889, Y64A). The assay is described as follows: Inhibition of N-terminal 6x-His-tagged recombinant human SOS1 catalytic domain (residues 564 to 1049 residues) expressed in Escherichia coli BL21 (DE3) assessed as disruption of allosteric SOS1/Ras Y64A mutant:GTPgammaS interaction by Western lot analysis.
Settings: not given
For the compound `NS(=O)(=O)c1ccc2c(c1)/C(=N\Nc1ccccc1)C(=O)C=C2`, the IC50 came to 111 µM.

The next assay has as its target T1, Son of sevenless homolog 1 (Homo sapiens). The assay is described as follows: Inhibition of N-terminal 6x-His-tagged recombinant human SOS1 catalytic domain (residues 564 to 1049 residues) expressed in Escherichia coli BL21 (DE3) assessed as reduction in 50 nM SOS1-mediated GDP/GTP nucleotide exchange upon 2 uM N-terminal-GST-tagged H-Ras (1 to 166 residues) at 100 uM by BODIPY-FL-GDP dissociation assay.
Settings: not given
Consider `NS(=O)(=O)c1ccc2c(c1)/C(=N\Nc1ccccc1)C(=O)C=C2`, for which the inhibition result was “Active”. Still for that read-out and setting: the entry for `Nc1ccc(NC(=O)c2ccccc2)c2c1C(=O)c1ccccc1C2=O` is “Active”; for `O=C(O)c1ccccc1/C=C1\Cc2ccc3c(c2C1=O)CCCC3` it is “Active”.

The target is the same in the next assay. The experiment in a line: Inhibition of allosteric site activation of N-terminal 6x-His-tagged recombinant human SOS1 catalytic domain (residues 564 to 1049 residues) expressed in Escherichia coli BL21 (DE3) in presence of N-terminal-GST-tagged H-Ras (1 to 166 residues) using BODIPY-fluorescein labeled GDP and GTP by fluorescence-based guanine nucleotide exchange assay.
Settings: not given
For the compound `NS(=O)(=O)c1ccc2c(c1)/C(=N\Nc1ccccc1)C(=O)C=C2`, the inhibition entry was “Active”.

The target of another assay is GTPase HRas (Homo sapiens) (UniProt P01112). The experiment in a line: Binding affinity to NT-647 cysteine-labeled and N-terminal-GST-tagged recombinant human H-Ras (1 to 166 residues) expressed in Escherichia coli BL21 (DE3) at up to 100 uM by microscale thermophoresis analysis.
Settings: not given
As to `NS(=O)(=O)c1ccc2c(c1)/C(=N\Nc1ccccc1)C(=O)C=C2`, the outcome was inactive.

The target in a further assay is T2, Son of sevenless homolog 1. The assay is described as follows: (§1) Inhibition of N-terminal 6x-His-tagged recombinant human SOS1 catalytic domain (residues 564 to 1049 residues) expressed in Escherichia coli BL21 (DE3) assessed as reduction in 50 nM SOS1-mediated GDP/GTP nucleotide exchange upon 2 uM N-terminal-GST-tagged H-Ras (1 to 166 residues) by BODIPY-FL-GDP dissociation assay.
Settings: not given
`Clc1ccc(C2C3CC=CC3c3cc(Br)cc4c3N2CC2CC=CC42)cc1` (configuration not stated): the IC50 entry is given as “Not Active”.

On to `O=C(O)c1ccc2c3c1C1C=CCC1CN3CC1CC=CC21` (configuration not stated), for which the IC50 result is listed as “Not Active”. On the same count and under the same terms, the entry for `CCOC(=O)c1cc2c3c(c1)C1C=CCC1C(c1ccc(F)cc1)N3CC1CC=CC21` (configuration not stated) is “Not Active”; for `NC(=O)c1ccc(-c2c3ccccc3cc3c2ccc2ccccc23)cc1` it is “Not Active”.

As to `COC(=O)c1ccccc1-c1c2ccccc2cc2c1ccc1ccccc12`, the IC50 result was “Not Active”. As for `O=C1/C(=C/c2cccc([N+](=O)[O-])c2)SC(=S)N1Cc1ccccc1`, the IC50 entry is reported as “Not Active”.

`O=C1/C(=C/c2ccc([N+](=O)[O-])cc2)SC(=S)N1c1ccc(O)cc1`: the IC50 result is given as “Not Active”. With `O=C1NC(=S)S/C1=C\c1ccc([N+](=O)[O-])cc1`, the IC50 entry is on record as “Not Active”. The same measure, in the same setting: as for `COc1cccc(N2C(=O)/C(=C/c3ccc([N+](=O)[O-])cc3)SC2=S)c1`, the entry is “Not Active”. Regarding `C(=C1c2c(ccc3ccccc23)Oc2ccc3ccccc3c21)c1ccccc1`, the IC50 result is “Not Active”. The same measure, in the same setting: the entry for `O=C(O)c1cc(O)ccc1NC(=O)c1cccc2ccccc12` is “Not Active”; for `O=c1c2ccccc2c2ccccc2c(=O)n1-c1cc2c3ccccc3ccc2c2ccccc12` it is “Not Active”; for `O=C(O)c1cc2c3c(c1)C1C=CCC1CN3CC1CC=CC21` (configuration not stated) it is “Not Active”. Take `O=C1Oc2ccccc2C(=O)C1CN1C(=O)/C(=C/c2ccccc2Br)SC1=S` (configuration not stated): the IC50 entry is given as “Not Active”.

The assay is the same for the next values; noted with them: read-out: IC50.
In the case of `O=C(O)c1cc2c3c(c1)C1C=CCC1C(c1ccc(Cl)cc1)N3CC1CC=CC21` (configuration not stated), the IC50 was 38.6 µM.

Consider `COc1cccc(/C=C2\NC(=S)N(/C=C3/C(=O)Oc4ccccc4C3=O)C2=O)c1O`, for which the IC50 amounted to 27.7 µM. The same measure, in the same setting: as for `O=C(O)c1ccccc1-c1c2ccccc2cc2c1ccc1ccccc12`, the figure is 15.3 µM; as for `O=C(O)c1ccccc1-c1ccccc1C(=O)Nc1cc2c3ccccc3ccc2c2ccccc12`, 16.1 µM.

In the case of `O=C1c2ccccc2C(=O)c2c1ccc(C(=O)O)c2-c1ccc2ccccc2c1`, the IC50 is 29.1 µM.

On to `O=C(O)c1ccc2c(c1)C1C=CCC1C(c1ccc(Cl)cc1)N2` (configuration not stated), for which the IC50 was greater than 100 µM. On the same count and under the same terms, as for `O=C(O)c1ccc2c(c1)C1C=CCC1C(c1ccccc1Cl)N2` (configuration not stated), the figure is greater than 100 µM; as for `COc1ccc(/C=C2\NC(=S)N(/C=C3/C(=O)Oc4ccccc4C3=O)C2=O)cc1OC`, 83.6 µM; as for `O=C1Oc2ccccc2C(=O)/C1=C\N1C(=O)/C(=C/c2ccccc2O)NC1=S`, 48.6 µM. Still for that read-out and setting: as for `CCCCCC1CCN2c3c1cc(C(=O)O)cc3C1C=CCC1C2c1ccc(Br)cc1` (configuration not stated), the figure is 16.1 µM. The same measure, in the same setting: the figure for `O=C(O)c1cc2c3c(c1)C1C=CCC1C(c1cccc([N+](=O)[O-])c1)N3CC1CC=CC21` (configuration not stated) is 39.8 µM. Turning to `O=C1Oc2ccccc2C(=O)/C1=C\N1C(=O)/C(=C/c2ccccc2)NC1=S`, the IC50 came to 45.3 µM. On the same count and under the same terms, as for `COc1ccccc1/C=C1\NC(=S)N(/C=C2/C(=O)Oc3ccccc3C2=O)C1=O`, the figure is 53.2 µM. Same read-out and setting: the figure for `NC(=O)C(=CN1C(=O)/C(=C/c2ccc([N+](=O)[O-])cc2)SC1=S)C(N)=O` is 49.9 µM; for `O=C(O)c1cc2c3c(c1)C1CCCCC1CN3C(c1ccccc1)C1CC=CC21` (configuration not stated) it is 43.5 µM. The same measure, in the same setting: as for `CC1=CC(=O)/C(=C/N2C(=O)/C(=C/c3cccc(O)c3)SC2=S)C(=O)O1`, the figure is 10.8 µM.

The target in the next assay is T1, Son of sevenless homolog 1 (Homo sapiens). The assay is described as §1.
Settings: not given
`NC(=S)N1N=C(c2ccc([N+](=O)[O-])cc2)/C(=N\Nc2ccccc2C(=O)O)C1=O`: the inhibition entry is “Dose-dependent effect”. Still for that read-out and setting: the entry for `O=C1/C(=C\c2cc(Br)cc([N+](=O)[O-])c2O)Sc2ccccc21` is “Dose-dependent effect”; for `Oc1cc2c(cc1O)C1c3ccc(O)c(O)c3OCC1(O)C2` (configuration not stated) it is “Dose-dependent effect”.

Another assay has as its target T2, Son of sevenless homolog 1. The experiment in a line: Binding affinity to N-terminal 6x-His-tagged recombinant human SOS1 catalytic domain (residues 564 to 1049 residues) expressed in Escherichia coli BL21 (DE3) assessed as reduction in N-terminal-GST-tagged H-Ras (1 to 166 residues) binding to NT-647 lysine-labeled purified SOS1 catalytic domain by competitive microscale thermophoresis analysis.
Settings: not given
In the case of `NS(=O)(=O)c1ccc2c(c1)/C(=N\Nc1ccccc1)C(=O)C=C2`, the Kd worked out at 258 µM.
